From PubChem BioAssay (NCI)
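Results reflect a 48-hour exposure of cells in 96-well plates to compound at five concentrations. The concentration for full growth arrest is given as TGI.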 Activity calls are given as the source filed them. Rule as the data show it: active = GI50 below about 0.43 µM; inactive = the rest.

Columns and labels:
Assay in all cases: NCI-60 cell line screen, 48 h
CAKI-1 renal = test system: CAKI-1 renal
SF-539 CNS = test system: SF-539 CNS
KM12 colon = test system: KM12 colon
SK-OV-3 ovarian = test system: SK-OV-3 ovarian
A549 NSCLC = test system: A549 NSCLC
UACC-257 melanoma = test system: UACC-257 melanoma
UO-31 renal = test system: UO-31 renal
LOX IMVI melanoma = test system: LOX IMVI melanoma
PC-3 prostate = test system: PC-3 prostate
HOP-62 NSCLC = test system: HOP-62 NSCLC
MALME-3M melanoma = test system: MALME-3M melanoma
SNB-19 CNS = test system: SNB-19 CNS
U251 CNS = test system: U251 CNS
OVCAR-5 ovarian = test system: OVCAR-5 ovarian
MDA-MB-231 breast = test system: MDA-MB-231 breast
OVCAR-3 ovarian = test system: OVCAR-3 ovarian
NCI-H460 lung = test system: NCI-H460 lung
UACC-62 melanoma = test system: UACC-62 melanoma
SR leukemia = test system: SR leukemia
RPMI-8226 leukemia = test system: RPMI-8226 leukemia
SF-295 CNS = test system: SF-295 CNS
HS 578T breast = test system: HS 578T breast
T-47D breast = test system: T-47D breast
COLO 205 colon = test system: COLO 205 colon
K-562 leukemia = test system: K-562 leukemia
DU-145 prostate = test system: DU-145 prostate
HCC-2998 colon = test system: HCC-2998 colon
SN12C renal = test system: SN12C renal
ACHN renal = test system: ACHN renal
SK-MEL-5 melanoma = test system: SK-MEL-5 melanoma
CCRF-CEM leukemia = test system: CCRF-CEM leukemia
M14 melanoma = test system: M14 melanoma
NCI-H23 lung = test system: NCI-H23 lung
SK-MEL-2 melanoma = test system: SK-MEL-2 melanoma
SK-MEL-28 melanoma = test system: SK-MEL-28 melanoma
SNB-75 CNS = test system: SNB-75 CNS
HT29 colon = test system: HT29 colon
HL-60(TB) leukemia = test system: HL-60(TB) leukemia
NCI/ADR-RES ovarian = test system: NCI/ADR-RES ovarian
MDA-N = test system: MDA-N
HCT-116 colon = test system: HCT-116 colon
BT-549 breast = test system: BT-549 breast
RXF 393 renal = test system: RXF 393 renal
SF-268 CNS = test system: SF-268 CNS
MDA-MB-435 = test system: MDA-MB-435
IGROV1 ovarian = test system: IGROV1 ovarian
SW-620 colon = test system: SW-620 colon
OVCAR-4 ovarian = test system: OVCAR-4 ovarian
NCI-H226 lung = test system: NCI-H226 lung
NCI-H522 lung = test system: NCI-H522 lung
EKVX NSCLC = test system: EKVX NSCLC
OVCAR-8 ovarian = test system: OVCAR-8 ovarian
HCT-15 colon = test system: HCT-15 colon
MCF7 breast = test system: MCF7 breast
HOP-92 NSCLC = test system: HOP-92 NSCLC
A498 renal = test system: A498 renal
786-0 renal = test system: 786-0 renal
TK-10 renal = test system: TK-10 renal
MOLT-4 leukemia = test system: MOLT-4 leukemia

## NC(=O)NC(=O)c1cccc(NC(=O)CI)c1
CAKI-1 renal
  TGI: 0.662 µM
SF-539 CNS
  TGI: 0.0701 µM
KM12 colon
  TGI: 18.5 µM
SK-OV-3 ovarian
  TGI: 1.06 µM
A549 NSCLC
  TGI: 12.4 µM
UACC-257 melanoma
  TGI: 0.438 µM
UO-31 renal
  TGI: 1.44 µM
LOX IMVI melanoma
  TGI: 0.395 µM
PC-3 prostate
  TGI: 1.35 µM
HOP-62 NSCLC
  TGI: 1.16 µM
MALME-3M melanoma
  TGI: 0.899 µM
SNB-19 CNS
  TGI: 14.7 µM
U251 CNS
  TGI: 0.136 µM
OVCAR-5 ovarian
  TGI: 2.12 µM
MDA-MB-231 breast
  TGI: 0.866 µM
OVCAR-3 ovarian
  TGI: < 0.01 µM
NCI-H460 lung
  TGI: 0.286 µM
UACC-62 melanoma
  TGI: 0.692 µM
SR leukemia
  TGI: 0.416 µM
RPMI-8226 leukemia
  TGI: 0.312 µM
SF-295 CNS
  TGI: 2.68 µM
HS 578T breast
  TGI: 0.146 µM
T-47D breast
  TGI: 4.3 µM
COLO 205 colon
  TGI: < 0.01 µM
K-562 leukemia
  TGI: 1.45 µM
DU-145 prostate
  TGI: 0.103 µM
HCC-2998 colon
  TGI: 0.609 µM
SN12C renal
  TGI: 0.326 µM
ACHN renal
  TGI: 1.58 µM
SK-MEL-5 melanoma
  TGI: 0.0382 µM
CCRF-CEM leukemia
  TGI: 0.145 µM
M14 melanoma
  TGI: 0.408 µM
NCI-H23 lung
  TGI: 2.04 µM
SK-MEL-2 melanoma
  TGI: 0.837 µM
SK-MEL-28 melanoma
  TGI: 7.49 µM
SNB-75 CNS
  TGI: 1.75 µM
HT29 colon
  TGI: 0.0607 µM
HL-60(TB) leukemia
  TGI: < 0.01 µM
NCI/ADR-RES ovarian
  TGI: 5.32 µM
MDA-N
  TGI: 0.0253 µM
HCT-116 colon
  TGI: 0.106 µM
BT-549 breast
  TGI: 2.44 µM
RXF 393 renal
  TGI: 2.13 µM
SF-268 CNS
  TGI: 0.0717 µM
MDA-MB-435
  TGI: 0.202 µM
IGROV1 ovarian
  TGI: 0.796 µM
SW-620 colon
  TGI: 2.03 µM
OVCAR-4 ovarian
  TGI: 5.08 µM
NCI-H226 lung
  TGI: 0.201 µM
NCI-H522 lung
  TGI: < 0.01 µM
EKVX NSCLC
  TGI: 10.4 µM
OVCAR-8 ovarian
  TGI: 0.188 µM
HCT-15 colon
  TGI: 2.06 µM
MCF7 breast
  TGI: 1.56 µM
HOP-92 NSCLC
  TGI: 1.58 µM
A498 renal
  TGI: 0.805 µM

## O=c1cc(-c2ccc(O)c(O)c2-c2c(O)cc3oc(-c4ccc(O)c(O)c4)cc(=O)c3c2O)oc2cc(O)cc(O)c12
CAKI-1 renal
  outcome: inactive
SF-539 CNS
  outcome: inactive
786-0 renal
  outcome: inactive
KM12 colon
  outcome: inactive
SK-OV-3 ovarian
  outcome: inactive
A549 NSCLC
  outcome: inactive
UACC-257 melanoma
  outcome: inactive
UO-31 renal
  outcome: inactive
LOX IMVI melanoma
  outcome: inactive
PC-3 prostate
  outcome: inactive
HOP-62 NSCLC
  outcome: inactive
MALME-3M melanoma
  outcome: inactive
SNB-19 CNS
  outcome: inactive
U251 CNS
  outcome: inactive
OVCAR-5 ovarian
  outcome: inactive
MDA-MB-231 breast
  outcome: inactive
OVCAR-3 ovarian
  outcome: inactive
UACC-62 melanoma
  outcome: inactive
SR leukemia
  outcome: inactive
RPMI-8226 leukemia
  outcome: inactive
SF-295 CNS
  outcome: inactive
HS 578T breast
  outcome: inactive
T-47D breast
  outcome: inactive
COLO 205 colon
  outcome: inactive
K-562 leukemia
  outcome: inactive
DU-145 prostate
  outcome: inactive
HCC-2998 colon
  outcome: inactive
SN12C renal
  outcome: inactive
ACHN renal
  outcome: inactive
SK-MEL-5 melanoma
  outcome: inactive
CCRF-CEM leukemia
  outcome: inactive
M14 melanoma
  outcome: inactive
NCI-H23 lung
  outcome: inactive
SK-MEL-2 melanoma
  outcome: inactive
SK-MEL-28 melanoma
  outcome: inactive
SNB-75 CNS
  outcome: inactive
HT29 colon
  outcome: inactive
HL-60(TB) leukemia
  outcome: inactive
NCI/ADR-RES ovarian
  outcome: inactive
MDA-N
  outcome: inactive
HCT-116 colon
  outcome: inactive
BT-549 breast
  outcome: inactive
RXF 393 renal
  outcome: inactive
TK-10 renal
  outcome: inactive
SF-268 CNS
  outcome: inactive
MDA-MB-435
  outcome: inactive
IGROV1 ovarian
  outcome: inactive
SW-620 colon
  outcome: inactive
OVCAR-4 ovarian
  outcome: inactive
NCI-H226 lung
  outcome: inactive
NCI-H522 lung
  outcome: inactive
EKVX NSCLC
  outcome: inactive
OVCAR-8 ovarian
  outcome: inactive
HCT-15 colon
  outcome: inactive
MCF7 breast
  outcome: inactive
HOP-92 NSCLC
  outcome: inactive
A498 renal
  outcome: inactive

## COc1ccc(N2C(=O)CC(=O)N(C(=O)CCCCCCCCC(=O)N3C(=O)CC(=O)N(c4ccc(OC)cc4)C3=S)C2=S)cc1
CAKI-1 renal
  TGI: > 100 µM
SF-539 CNS
  TGI: > 100 µM
786-0 renal
  TGI: > 100 µM
KM12 colon
  TGI: > 100 µM
SK-OV-3 ovarian
  TGI: > 100 µM
A549 NSCLC
  TGI: > 100 µM
UACC-257 melanoma
  TGI: > 100 µM
UO-31 renal
  TGI: > 100 µM
LOX IMVI melanoma
  TGI: > 100 µM
PC-3 prostate
  TGI: > 100 µM
HOP-62 NSCLC
  TGI: > 100 µM
MALME-3M melanoma
  TGI: > 100 µM
SNB-19 CNS
  TGI: > 100 µM
U251 CNS
  TGI: > 100 µM
OVCAR-5 ovarian
  TGI: > 100 µM
MDA-MB-231 breast
  TGI: > 100 µM
OVCAR-3 ovarian
  TGI: > 100 µM
NCI-H460 lung
  TGI: > 100 µM
UACC-62 melanoma
  TGI: > 100 µM
SR leukemia
  TGI: > 100 µM
RPMI-8226 leukemia
  TGI: > 100 µM
SF-295 CNS
  TGI: > 100 µM
HS 578T breast
  TGI: > 100 µM
T-47D breast
  TGI: > 100 µM
COLO 205 colon
  TGI: > 100 µM
K-562 leukemia
  TGI: > 100 µM
DU-145 prostate
  TGI: > 100 µM
HCC-2998 colon
  TGI: > 100 µM
SN12C renal
  TGI: > 100 µM
ACHN renal
  TGI: > 100 µM
SK-MEL-5 melanoma
  TGI: > 100 µM
CCRF-CEM leukemia
  TGI: > 100 µM
M14 melanoma
  TGI: > 100 µM
NCI-H23 lung
  TGI: > 100 µM
SK-MEL-2 melanoma
  TGI: > 100 µM
SK-MEL-28 melanoma
  TGI: > 100 µM
SNB-75 CNS
  TGI: > 100 µM
HT29 colon
  TGI: > 100 µM
HL-60(TB) leukemia
  TGI: > 100 µM
NCI/ADR-RES ovarian
  TGI: > 100 µM
MDA-N
  TGI: > 100 µM
HCT-116 colon
  TGI: > 100 µM
BT-549 breast
  TGI: > 100 µM
RXF 393 renal
  TGI: > 100 µM
TK-10 renal
  TGI: > 100 µM
SF-268 CNS
  TGI: > 100 µM
MDA-MB-435
  TGI: > 100 µM
SW-620 colon
  TGI: > 100 µM
OVCAR-4 ovarian
  TGI: > 100 µM
NCI-H226 lung
  TGI: > 100 µM
NCI-H522 lung
  TGI: > 100 µM
EKVX NSCLC
  TGI: > 100 µM
OVCAR-8 ovarian
  TGI: > 100 µM
MOLT-4 leukemia
  TGI: > 100 µM
HCT-15 colon
  TGI: > 100 µM
MCF7 breast
  TGI: > 100 µM
HOP-92 NSCLC
  TGI: > 100 µM
A498 renal
  TGI: > 100 µM
